Consider 22 compounds from ChEMBL document CHEMBL5241059, “Evolution in non-peptide α-helix mimetics on the road to effective protein-protein interaction modulators” (Eur J Med Chem, 2021).

Assay [1] deals with Human immunodeficiency virus 1. The assay is described as follows: Antiviral activity against HIV1 RRE-Rev assessed as inhibition of viral replication. In kind it is functional, organism-based.
The next assay has as its system SJSA-1. Kind of assay: cells. Conditions: Homo sapiens.
The test system of assay [2] is Human immunodeficiency virus 1. The assay is described as follows: Antiviral activity against HIV-1 pseudotyped virus expressing HXB-2 proteins infected in human TZM-bl cells assessed as inhibition of viral entry by luciferase based analysis. The assay is classed as functional, organism-based. The conditions noted are these: Human immunodeficiency virus 1, TZM-bl.

Assay [3] can be described thus: Binding affinity to TAR RNA assessed as dissociation constant.
Assay [4] is described as follows: Inhibition of Mcl-1/NoxaB (unknown origin) protein-protein interaction. More on the design: species or system Homo sapiens.
Assay [5] has as its target Tumour suppressor p53/oncoprotein Mdm2 (Homo sapiens, UniProt Q00987). Kind of assay: Inhibition of HDM2-p53 (unknown origin) protein-protein interaction. In kind it is protein assay.
Assay [6] concerns the target Myc proto-oncogene protein (Homo sapiens, UniProt P01106). The assay is described as follows: Binding affinity to c-MYC (unknown origin) assessed as dissociation constant.
Another assay deals with Trypanothione reductase (Leishmania infantum, UniProt A4HSF7). Kind of assay: Inhibition of Leishmania infantum TryR oxidoreductase activity expressed in Escherichia coli BL21 (DE3) using TS2 and NADPH as substrate by incubated for 10 mins followed by substrate addition by DTNB-reagent based spectrophotometric method.
Chain of Trypanothione reductase (A4HSF7 whole entry): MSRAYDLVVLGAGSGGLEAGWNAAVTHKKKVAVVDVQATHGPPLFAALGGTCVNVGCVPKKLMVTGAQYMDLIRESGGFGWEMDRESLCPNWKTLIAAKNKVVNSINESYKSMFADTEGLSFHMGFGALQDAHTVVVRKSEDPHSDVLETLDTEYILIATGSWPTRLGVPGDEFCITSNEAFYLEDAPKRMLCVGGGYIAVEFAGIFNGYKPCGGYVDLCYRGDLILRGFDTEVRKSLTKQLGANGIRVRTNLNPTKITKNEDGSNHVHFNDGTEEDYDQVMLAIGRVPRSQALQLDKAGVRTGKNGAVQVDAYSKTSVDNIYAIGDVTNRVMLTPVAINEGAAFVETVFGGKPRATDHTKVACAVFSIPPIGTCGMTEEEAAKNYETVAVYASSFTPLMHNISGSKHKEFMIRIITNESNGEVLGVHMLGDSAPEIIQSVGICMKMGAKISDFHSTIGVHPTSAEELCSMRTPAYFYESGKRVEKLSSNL
The target in assay [7] is T1, Induced myeloid leukemia cell differentiation protein Mcl-1 (Homo sapiens, UniProt Q07820). The assay is described as follows: Inhibition of FITC-labeled BH3 peptide binding to MCL1 (unknown origin).
T1 sequence (Q07820 whole entry, the tested form may be a part): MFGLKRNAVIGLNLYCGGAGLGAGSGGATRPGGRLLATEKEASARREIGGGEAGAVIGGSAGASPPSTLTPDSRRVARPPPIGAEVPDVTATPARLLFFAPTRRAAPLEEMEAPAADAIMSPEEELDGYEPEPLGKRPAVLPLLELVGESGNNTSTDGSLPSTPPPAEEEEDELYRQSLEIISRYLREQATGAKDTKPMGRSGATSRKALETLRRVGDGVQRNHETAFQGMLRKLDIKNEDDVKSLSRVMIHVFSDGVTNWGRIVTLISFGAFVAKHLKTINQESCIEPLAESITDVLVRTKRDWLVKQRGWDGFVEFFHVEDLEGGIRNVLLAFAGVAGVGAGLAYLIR
Assay [8] has as its target T1, Induced myeloid leukemia cell differentiation protein Mcl-1. The assay is described as follows: Displacement of fluorescein tagged Bak BH3 peptide from MCL-1 (172 to 327 residues) (unknown origin) by fluorescence polarization competition assay. Background: Polarisation of emitted light reports the rotation of a fluorescent probe.
In assay [9] the target is Histone acetyltransferase p300/Hypoxia-inducible factor 1-alpha (Homo sapiens, UniProt Q09472+Q16665). Kind of assay: Inhibition of hypoxia-induced HIF1alpha/P300 interaction (unknown origin) incubated for 30 mins for fluorescence anisotropy competition assay. In kind it is protein-complex assay.
Assay [10] in a line: Binding affinity to RNA S protein (unknown origin) assessed as dissociation constant by ITC method. Also on record: species or system Homo sapiens.
For assay [11], the target named is T2, Amyloid-beta precursor protein (Homo sapiens, UniProt P05067). Kind of assay: Binding affinity to amyloid beta 40 (unknown origin) by ITC method.
T2 sequence (P05067 whole entry): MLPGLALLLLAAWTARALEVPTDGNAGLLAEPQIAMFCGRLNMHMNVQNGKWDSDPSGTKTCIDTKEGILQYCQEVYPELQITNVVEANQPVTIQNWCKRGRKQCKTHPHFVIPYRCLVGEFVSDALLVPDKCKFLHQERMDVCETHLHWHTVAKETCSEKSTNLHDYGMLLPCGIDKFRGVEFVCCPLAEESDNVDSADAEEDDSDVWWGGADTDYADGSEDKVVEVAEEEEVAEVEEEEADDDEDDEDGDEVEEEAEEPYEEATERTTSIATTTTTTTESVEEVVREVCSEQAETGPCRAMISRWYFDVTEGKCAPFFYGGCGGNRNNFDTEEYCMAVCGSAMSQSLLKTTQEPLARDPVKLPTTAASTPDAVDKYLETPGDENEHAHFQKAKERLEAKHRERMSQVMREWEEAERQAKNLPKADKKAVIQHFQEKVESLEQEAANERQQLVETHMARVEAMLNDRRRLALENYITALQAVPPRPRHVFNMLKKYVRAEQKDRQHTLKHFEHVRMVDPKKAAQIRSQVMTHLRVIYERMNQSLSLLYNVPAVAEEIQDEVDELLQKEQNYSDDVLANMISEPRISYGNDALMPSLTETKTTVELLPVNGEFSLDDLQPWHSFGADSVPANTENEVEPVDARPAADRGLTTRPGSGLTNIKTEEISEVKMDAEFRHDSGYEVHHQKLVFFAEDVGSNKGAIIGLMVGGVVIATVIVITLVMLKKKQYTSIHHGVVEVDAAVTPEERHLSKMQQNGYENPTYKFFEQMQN
For assay [12], the system named is N2a. Kind of assay: Cytotoxicity against mouse N2a cells. In kind it is functional, cell-based.
Assay [13] concerns the target HIF1A/p300/CREB-binding protein (Homo sapiens, UniProt Q09472+Q16665+Q92793). Kind of assay: Binding affinity to hypoxia induced HIF-1 alpha/P300 CH1 domain (323 to 423 residues expressed in Escherichia coli (DE3)/CBP (unknown origin) interaction assessed as dissociation constant.
In another assay the test system is MDA-MB-231. Kind of assay: Antitumor activity against human MDA-MB-231 cells xenografted in mouse assessed reduction in tumor volume measured for 30 days relative to control. Conditions: time 30 day. Also on record: scale not given: the % may be the effect or the level left. The assay is classed as functional. In general terms: Xenograft models place foreign cells or tissue in a host animal.

Assay [14] deals with N2a. The assay is described as follows: Effect on mouse N2a cells assessed as rescue of amyloid beta toxicity. The assay is classed as functional, cell-based.
Assay [15] has as its target T2, Amyloid-beta precursor protein. Kind of assay: Binding affinity to amyloid beta 42 (unknown origin) assessed as dissociation constant.
The target of assay [16] is T1, Induced myeloid leukemia cell differentiation protein Mcl-1. The assay is described as follows: Displacement of fluorescent-labeled BH3 peptide from recombinant MCL1 (unknown origin) by fluorescence polarization-based competitive binding assay.
Assay [17] concerns the target T3, Islet amyloid polypeptide (Homo sapiens) (UniProt P10997).
T3 sequence (whole entry): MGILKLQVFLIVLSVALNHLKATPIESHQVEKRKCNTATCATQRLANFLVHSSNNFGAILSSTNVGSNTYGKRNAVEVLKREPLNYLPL
The assay is described as follows: Disruption of beta-fibrillation of IAPP (unknown origin) assessed as half life of protein.

Assay [18] has as its target T1, Induced myeloid leukemia cell differentiation protein Mcl-1. Kind of assay: Binding affinity to fluorescent-labeled BH3 peptide from GST tagged MCL1 (172 to 320 residues) (unknown origin) expressed in Escherichia coli BL21 (DE3) incubated for 15 mins by fluorescence polarization-based competitive binding assay.

Molecules are shown by their SMILES.

Chain of Tumour suppressor p53/oncoprotein Mdm2 (P04637 whole entry): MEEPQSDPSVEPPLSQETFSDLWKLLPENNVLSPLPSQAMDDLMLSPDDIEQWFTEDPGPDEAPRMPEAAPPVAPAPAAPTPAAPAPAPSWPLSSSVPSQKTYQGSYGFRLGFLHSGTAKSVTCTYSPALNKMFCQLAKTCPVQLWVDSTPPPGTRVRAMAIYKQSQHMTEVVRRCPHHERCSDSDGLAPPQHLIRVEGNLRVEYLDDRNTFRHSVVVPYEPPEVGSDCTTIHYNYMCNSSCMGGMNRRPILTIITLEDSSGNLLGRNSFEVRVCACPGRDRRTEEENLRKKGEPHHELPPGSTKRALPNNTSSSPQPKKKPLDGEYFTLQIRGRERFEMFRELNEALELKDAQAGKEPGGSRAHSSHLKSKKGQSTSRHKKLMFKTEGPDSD
Chain of Tumour suppressor p53/oncoprotein Mdm2 (Q00987 whole entry): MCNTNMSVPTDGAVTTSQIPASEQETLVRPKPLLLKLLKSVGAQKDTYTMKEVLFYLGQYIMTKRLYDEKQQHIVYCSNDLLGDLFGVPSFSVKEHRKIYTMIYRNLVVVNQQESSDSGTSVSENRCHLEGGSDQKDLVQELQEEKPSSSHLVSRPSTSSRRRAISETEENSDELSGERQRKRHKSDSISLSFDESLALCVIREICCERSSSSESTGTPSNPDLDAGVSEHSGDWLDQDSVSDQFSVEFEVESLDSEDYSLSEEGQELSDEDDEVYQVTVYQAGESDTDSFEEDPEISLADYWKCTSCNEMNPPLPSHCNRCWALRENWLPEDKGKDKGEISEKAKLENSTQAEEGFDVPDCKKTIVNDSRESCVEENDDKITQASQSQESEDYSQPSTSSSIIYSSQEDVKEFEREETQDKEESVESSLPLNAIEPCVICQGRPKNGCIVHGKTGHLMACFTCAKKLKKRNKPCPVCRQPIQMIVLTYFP
Chain of Myc proto-oncogene protein (P01106 whole entry): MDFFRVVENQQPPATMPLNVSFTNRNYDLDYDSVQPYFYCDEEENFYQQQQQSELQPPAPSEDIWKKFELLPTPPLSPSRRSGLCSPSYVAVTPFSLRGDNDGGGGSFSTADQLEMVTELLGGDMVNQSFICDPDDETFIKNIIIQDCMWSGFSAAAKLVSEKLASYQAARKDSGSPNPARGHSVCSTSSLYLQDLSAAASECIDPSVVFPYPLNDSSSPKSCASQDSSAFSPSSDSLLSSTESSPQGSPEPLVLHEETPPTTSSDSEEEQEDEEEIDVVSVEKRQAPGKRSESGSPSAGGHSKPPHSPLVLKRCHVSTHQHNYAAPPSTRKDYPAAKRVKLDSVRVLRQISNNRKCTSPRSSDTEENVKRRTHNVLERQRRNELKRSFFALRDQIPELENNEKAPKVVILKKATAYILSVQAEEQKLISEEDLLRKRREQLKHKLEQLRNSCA

For `COc1cc(CCN)c(-c2cc(C)c(-c3cc(CCN)c(OC)cc3CCN)cc2C)cc1CCN`, the IC50 in [1] turned out to be 14 µM.
Compound `CC(C)[C@@H](CS(=O)(=O)C(C)C)N1C(=O)[C@@](C)(CC(=O)O)C[C@H](c2cccc(Cl)c2)[C@H]1c1ccc(Cl)cc1` [NAVTEMADLIN] registered an IC50 with SJSA-1 of 25 nM.
As to `NCCCOc1nc(C(=O)O)ccc1NC(=O)c1ccc(NC(=O)c2ccc([N+](=O)[O-])c(OCCCN)n2)c(OCCCN)n1`, in assay [2], the IC50 was 25 µM. Also, the Kd in [3] worked out at 4.1 µM.
For `CC(C)Oc1cc(NC(=O)[C@H](Cc2ccccc2)NC(=O)c2ccc(N)c(OCc3ccccc3)c2)ccc1C(=O)NCC(=O)O`, the IC50 is > 100 µM in [4] and 11.9 µM in [5].
`CC(C)COc1cc(C(=O)O)ccc1NC(=O)c1ccc([N+](=O)[O-])c(OCc2ccc3ccccc3c2)c1`: in assay [6], the Kd is 10 µM.
On to `NCCNCc1cncn1-c1ccc(-c2nc(CCc3ccc(-c4ccccc4)cc3)cs2)c(OCCN2CNCC2=O)c1`, for which the IC50 on Trypanothione reductase was 8.6 µM.
Take `CCC(C)CN(C(=O)c1ccc(N(Cc2ccc3ccccc3c2)C(=O)c2ccc(NCC(C)C)cc2)cc1)c1ccc(C(=O)N[C@H](C(=O)O)[C@H](C)CC)cc1` (stereo partly drawn): the IC50 is 24 µM in [4] and 9.3 µM in [5].
Compound `CC(C)(C)OC(=O)N(Cc1ccccc1)c1nc(NCC(=O)O)c2ncn(Cc3cccc4ccccc34)c2n1` returned an IC50 in [7] of 72 µM.
With `Cc1cc(-c2ccc(C(=O)O)c(OCc3ccccc3)c2)cc(C)c1Cl`, the Ki in assay [8] turned out to be 2900 nM.
`CC(C)COc1cc(C(=O)Nc2ccc(C(=O)O)cc2OC(C)C)ccc1NC(=O)c1ccc([N+](=O)[O-])c(OCC(C)C)c1`: the IC50 in [9] worked out at 9.2 µM.
For the compound `CC(C)Oc1cc(NC(=O)[C@H](Cc2ccccc2)NC(=O)c2ccc(N)c(OCc3ccc(Cl)cc3)c2)ccc1C(=O)NCC(=O)O`, the Kd in [10] came to 1850 nM.
For `CC(C)C[C@H](NC(=O)c1ccc(NC(=O)[C@@H](N)Cc2ccccc2)c(OCCc2c[nH]c3ccccc23)c1)C(=O)O`, in assay [5], it took 15 µM to reach half-maximal inhibition (IC50).
In assay [11], `NCCCOc1nc(C(=O)O)ccc1NC(=O)c1ccc(NC(=O)c2ccc([N+](=O)[O-])c(OCc3ccccc3)n2)c(OCCCN)n1` came in with a Kd of 700 nM. In the assay with N2a [12], 1400 nM corresponded to half-maximal inhibition (IC50).
Regarding `CC(C)C[C@@H]1NCCN([C@@H](CC(C)C)C(=O)N2CCN([C@@H](CCC(N)=O)C(N)=O)C(=O)[C@@H]2C)C1=O`, in [13], the Kd was found to be 5.3 µM. Moreover, in the assay on MDA-MB-231, the Activity is recorded as 50%.
As for `CC(C)COc1nc(C(=O)Nc2ccc(C(=O)Nc3ccc(C(=O)Nc4ccc(C(=O)O)nc4OCC(=O)O)nc3OCC(=O)O)nc2OCc2ccccc2)ccc1[N+](=O)[O-]`, the midpoint of inhibition with N2a [12], the IC50, lay at 2500 nM.
In the case of `CCC(C)Oc1cc(C(=O)Nc2cccc3c(OCC(=O)O)cc(C(=O)OC)nc23)nc2c(NC(=O)c3cc(OCC(=O)O)c4cccc(NC(=O)c5cc(OC(C)CC)c6cccc([N+](=O)[O-])c6n5)c4n3)cccc12` (stereo not drawn), the IC50 in the assay with N2a [14] is 3000 nM. In addition, in [15], the Kd came to 2200 nM.
On Trypanothione reductase, `NCCNCc1cncn1-c1ccc(-c2nc(CCc3ccc4ccccc4c3)cs2)c(OCCN2CNCC2=O)c1` came in with an IC50 of 5.1 µM.
Consider `Oc1ccc(CCNc2nc3nc(n2)N2CCN(CC2Cc2ccccc2)c2nc(nc(Nc4ccc(Oc5ccccc5)cc4)n2)NCCOCCOCCOCCN3)cc1` (stereo not drawn), for which the Ki in [16] was 2600 nM.
For `CCCc1c(NC(=O)Nc2sccc2CCC(=O)O)ccc2sc(N(CCC(=O)O)C(=O)OCC)nc12`, the T1/2 in [17] is 23.1 h.
`Cc1cc(-c2cc(CCN)ccc2CCN)c(C)cc1-c1cc(CCN)ccc1CCN`: the IC50 in assay [1] amounted to 47 µM.
Consider `Oc1ccc(CCNc2nc3nc(n2)N2CCN(CC2Cc2ccccc2)c2nc(nc(Nc4ccc(Oc5ccccc5)cc4)n2)NCCOCCOCCOCCOCCN3)cc1` (stereo not drawn), for which the Ki in assay [16] is 2600 nM.
For `O=C(O)CCCNc1nc(NCCc2ccc(O)cc2)nc(N2CCN(c3nc(NCCC(=O)O)nc(Nc4ccc(Oc5ccccc5)cc4)n3)CC2Cc2ccccc2)n1` (stereo not drawn), the Ki in assay [18] turned out to be 530 nM.

What is called IC50 is the concentration that inhibits the measured activity by half. As usually defined, the Kd is the equilibrium constant for the complex coming apart. One may read the Ki as the dissociation constant of the complex between target and ligand, obtained from inhibition or displacement.
